Literature values, collected in paper PMC5646416 (Journal of clinical pharmacy and therapeutics, 2017).

Conditions: single-dose pharmacokinetic studies

Row | AUC higher in rs4149056 CC homozygotes than in rs4149056 TT homozygotes | SMILES
1 | 162–191% | O=C(O)C[C@H](O)C[C@H](O)/C=C/c1c(C2CC2)nc2ccccc2c1-c1ccc(F)cc1 [pitavastatin]
2 | 57–130% | CC[C@H](C)C(=O)O[C@H]1C[C@H](O)C=C2C=C[C@H](C)[C@H](CC[C@@H](O)C[C@@H](O)CC(=O)O)[C@H]21 [pravastatin]
3 | 62–117% | CC(C)c1nc(N(C)S(C)(=O)=O)nc(-c2ccc(F)cc2)c1/C=C/[C@@H](O)C[C@@H](O)CC(=O)O [rosuvastatin]
4 | 221% | CCC(C)(C)C(=O)O[C@H]1C[C@@H](C)C=C2C=C[C@H](C)[C@H](CC[C@@H](O)C[C@@H](O)CC(=O)O)[C@H]21 [simvastatin acid]
